Experimental data: the NIST ThermoML archive (doi:10.1016/j.jct.2016.02.009)
Values joined by “and” are separate entries in the source; they are usually repeats but may differ in a detail not shown here. Equal entries are not always repeated.

Test: molar heat capacity at constant pressure
Conditions: 101.33 kPa, Small (less than 1 g) adiabatic calorimetry

CCCCCCCCCCn1cc[n+](C)c1.O=S(=O)([N-]S(=O)(=O)C(F)(F)F)C(F)(F)F
Conditions	molar heat capacity at constant pressure
142.54 K, Metastable crystal	368.4 J/K/mol
144.48 K, Crystal 2	358.2 J/K/mol
144.48 K, Metastable crystal	372.5 J/K/mol
146.41 K, Metastable crystal	376.6 J/K/mol
146.45 K, Crystal 2	361.5 J/K/mol
148.35 K, Metastable crystal	380.7 J/K/mol
148.41 K, Crystal 2	365 J/K/mol
150 K, Crystal 2	367.5 J/K/mol
150 K, Metastable crystal	384.3 J/K/mol
150.28 K, Metastable crystal	384.8 J/K/mol
150.38 K, Crystal 2	368.2 J/K/mol
152.21 K, Metastable crystal	389.1 J/K/mol
152.35 K, Crystal 2	371.7 J/K/mol
154.14 K, Metastable crystal	393.4 J/K/mol
154.32 K, Crystal 2	375 J/K/mol
155.25 K, Crystal 2	376.4 J/K/mol
156.07 K, Metastable crystal	397.7 J/K/mol
157.33 K, Crystal 2	380.2 J/K/mol
157.99 K, Metastable crystal	402.2 J/K/mol
159.29 K, Crystal 2	383.4 J/K/mol
159.91 K, Metastable crystal	406.6 J/K/mol
160 K, Crystal 2	384.7 J/K/mol
160 K, Metastable crystal	406.8 J/K/mol
161.26 K, Crystal 2	387 J/K/mol
161.83 K, Metastable crystal	411 J/K/mol
163.22 K, Crystal 2	390.1 J/K/mol
163.75 K, Metastable crystal	415.7 J/K/mol
165.19 K, Crystal 2	393.6 J/K/mol
165.66 K, Metastable crystal	420.2 J/K/mol
167.15 K, Crystal 2	397.2 J/K/mol
167.56 K, Metastable crystal	425 J/K/mol
169.11 K, Crystal 2	400.7 J/K/mol
169.47 K, Metastable crystal	429.9 J/K/mol
170 K, Crystal 2	402.3 J/K/mol
170 K, Metastable crystal	431.2 J/K/mol
171.07 K, Crystal 2	404.1 J/K/mol
171.37 K, Metastable crystal	434.6 J/K/mol
173.03 K, Crystal 2	407.6 J/K/mol
173.27 K, Metastable crystal	440 J/K/mol
174.98 K, Crystal 2	411.2 J/K/mol
175.16 K, Metastable crystal	445.5 J/K/mol
176.93 K, Crystal 2	414.8 J/K/mol
177.04 K, Metastable crystal	451.4 J/K/mol
178.88 K, Crystal 2	418.4 J/K/mol
178.92 K, Metastable crystal	458.1 J/K/mol
180 K, Crystal 2	420.7 J/K/mol
180 K, Metastable crystal	462.6 J/K/mol
180.78 K, Metastable crystal	466 J/K/mol
180.83 K, Crystal 2	422.1 J/K/mol
182.64 K, Metastable crystal	476.8 J/K/mol
182.78 K, Crystal 2	426 J/K/mol
184.47 K, Metastable crystal	489.9 J/K/mol
184.72 K, Crystal 2	430 J/K/mol
186.29 K, Metastable crystal	501.9 J/K/mol
186.66 K, Crystal 2	434 J/K/mol
188.1 K, Metastable crystal	507.1 J/K/mol
188.59 K, Crystal 2	438.2 J/K/mol
189.9 K, Metastable crystal	510.3 J/K/mol
190 K, Crystal 2	440.9 J/K/mol
190 K, Metastable crystal	510.3 J/K/mol
190.52 K, Crystal 2	442.2 J/K/mol
191.71 K, Metastable crystal	511.1 J/K/mol
192.45 K, Crystal 2	446.2 J/K/mol
193.51 K, Metastable crystal	514.8 J/K/mol
194.38 K, Crystal 2	450.4 J/K/mol
195.31 K, Metastable crystal	521.6 J/K/mol
196.3 K, Crystal 2	455.3 J/K/mol
197.11 K, Metastable crystal	529.9 J/K/mol
198.22 K, Crystal 2	460.2 J/K/mol
198.89 K, Metastable crystal	539.6 J/K/mol
200 K, Crystal 2	463.2 J/K/mol
200 K, Metastable crystal	546.2 J/K/mol
200.13 K, Crystal 2	465.1 J/K/mol
200.65 K, Metastable crystal	550 J/K/mol
202.1 K, Crystal 2	470.5 J/K/mol
202.46 K, Metastable crystal	568.9 J/K/mol
204.12 K, Crystal 2	476.2 J/K/mol
204.28 K, Metastable crystal	599.4 J/K/mol
206.02 K, Metastable crystal	683.4 J/K/mol
206.13 K, Crystal 2	482 J/K/mol
207.65 K, Metastable crystal	752.9 J/K/mol
208.14 K, Crystal 2	487.2 J/K/mol
209.38 K, Metastable crystal	552.2 J/K/mol
210 K, Crystal 2	489.1 J/K/mol
210 K, Metastable crystal	513 J/K/mol
210.15 K, Crystal 2	491.5 J/K/mol
211.31 K, Metastable crystal	512.9 J/K/mol
212.15 K, Crystal 2	495.6 J/K/mol
213.27 K, Metastable crystal	512 J/K/mol
214.15 K, Crystal 2	500.9 J/K/mol
215.24 K, Metastable crystal	515.4 J/K/mol
216.13 K, Crystal 2	507 J/K/mol
217.2 K, Metastable crystal	523.2 J/K/mol
218.12 K, Crystal 2	513.6 J/K/mol
219.17 K, Metastable crystal	551.8 J/K/mol
220 K, Crystal 2	519.8 J/K/mol
220.09 K, Crystal 2	520.6 J/K/mol
221.12 K, Metastable crystal	812.2 J/K/mol
222.05 K, Crystal 2	528.2 J/K/mol
224 K, Crystal 2	536.2 J/K/mol
225.95 K, Crystal 2	545.3 J/K/mol
227.87 K, Crystal 2	555.4 J/K/mol
229.79 K, Crystal 2	567 J/K/mol
230 K, Crystal 2	569.2 J/K/mol
231.68 K, Crystal 2	580.6 J/K/mol
233.56 K, Crystal 2	594.7 J/K/mol
235.42 K, Crystal 2	610.3 J/K/mol
237.26 K, Crystal 2	624.9 J/K/mol
239.07 K, Crystal 2	641 J/K/mol
240 K, Crystal 2	651.3 J/K/mol
240.86 K, Crystal 2	665.1 J/K/mol
242.62 K, Crystal 2	694.9 J/K/mol
244.33 K, Crystal 2	733.6 J/K/mol
245.99 K, Crystal 2	789 J/K/mol
247.56 K, Crystal 2	885.2 J/K/mol
249 K, Crystal 1	1053 J/K/mol
249 K, Crystal 2	1053 J/K/mol
249.01 K, Crystal 1	1053 J/K/mol
250.61 K, Crystal 1	627.9 J/K/mol
252 K, Crystal 1	619.2 J/K/mol
252.45 K, Crystal 1	620.8 J/K/mol
254.29 K, Crystal 1	629.9 J/K/mol
256.12 K, Crystal 1	642.5 J/K/mol
257.94 K, Crystal 1	658.6 J/K/mol
259.72 K, Crystal 1	680.3 J/K/mol
260 K, Crystal 1	648.7 J/K/mol
261.48 K, Crystal 1	710 J/K/mol
263.19 K, Crystal 1	751.8 J/K/mol
263.96 K, Liquid	730.6 J/K/mol
264.85 K, Crystal 1	795.1 J/K/mol
265.87 K, Liquid	731.7 J/K/mol
266.46 K, Crystal 1	822.8 J/K/mol
267.69 K, Liquid	733 J/K/mol
268.04 K, Crystal 1	872.1 J/K/mol
269.51 K, Liquid	734.3 J/K/mol
269.56 K, Crystal 1	972.8 J/K/mol
270 K, Crystal 1	687.6 J/K/mol
271.33 K, Liquid	735.9 J/K/mol
273.16 K, Liquid	736.9 J/K/mol
274.98 K, Liquid	738.2 J/K/mol
276.81 K, Liquid	739.4 J/K/mol
277.33 K, Crystal 1	717.5 J/K/mol
277.33 K, Liquid	739.7 J/K/mol
278.63 K, Liquid	740.6 J/K/mol
278.84 K, Liquid	741.1 J/K/mol
280 K, Liquid	741.6 J/K/mol
280.45 K, Liquid	741.8 J/K/mol
280.56 K, Liquid	742.3 J/K/mol
282.28 K, Liquid	743.2 J/K/mol and 742.8 J/K/mol
284 K, Liquid	744.4 J/K/mol
284.1 K, Liquid	744.5 J/K/mol
285.72 K, Liquid	745.6 J/K/mol
285.92 K, Liquid	745.7 J/K/mol
287.44 K, Liquid	747.1 J/K/mol
287.75 K, Liquid	746.9 J/K/mol
289.16 K, Liquid	747.9 J/K/mol
289.57 K, Liquid	748.4 J/K/mol
290 K, Liquid	748.8 J/K/mol
290.88 K, Liquid	749.4 J/K/mol
291.4 K, Liquid	749.8 J/K/mol
292.6 K, Liquid	750.6 J/K/mol
293.22 K, Liquid	750.8 J/K/mol
294.32 K, Liquid	751.9 J/K/mol
295.05 K, Liquid	752.4 J/K/mol
296.04 K, Liquid	753.2 J/K/mol
296.87 K, Liquid	753.9 J/K/mol
297.77 K, Liquid	754.3 J/K/mol
298.15 K, Liquid	754.8 J/K/mol
298.69 K, Liquid	755.1 J/K/mol
299.49 K, Liquid	755.7 J/K/mol
300 K, Liquid	756.2 J/K/mol
301.26 K, Liquid	757.2 J/K/mol
303.08 K, Liquid	758.7 J/K/mol
304.91 K, Liquid	759.9 J/K/mol
306.73 K, Liquid	761.3 J/K/mol
308.56 K, Liquid	762.8 J/K/mol
310 K, Liquid	763.8 J/K/mol
310.38 K, Liquid	764.3 J/K/mol
312.21 K, Liquid	765.5 J/K/mol
314.03 K, Liquid	766.8 J/K/mol
315.86 K, Liquid	768.4 J/K/mol
317.69 K, Liquid	769.8 J/K/mol
319.51 K, Liquid	771.1 J/K/mol
320 K, Liquid	771.5 J/K/mol
321.34 K, Liquid	772.8 J/K/mol
323.17 K, Liquid	774.3 J/K/mol
324.99 K, Liquid	775.7 J/K/mol
326.82 K, Liquid	777.2 J/K/mol
328.64 K, Liquid	778.5 J/K/mol
330 K, Liquid	779.5 J/K/mol
330.47 K, Liquid	779.9 J/K/mol
332.29 K, Liquid	781.6 J/K/mol
334.12 K, Liquid	783.1 J/K/mol
335.95 K, Liquid	784.6 J/K/mol
337.77 K, Liquid	786 J/K/mol
339.6 K, Liquid	787.5 J/K/mol
340 K, Liquid	787.7 J/K/mol
341.42 K, Liquid	788.9 J/K/mol
343.25 K, Liquid	789.9 J/K/mol
345.08 K, Liquid	791.3 J/K/mol
346.91 K, Liquid	793.1 J/K/mol
348.74 K, Liquid	794.8 J/K/mol
350 K, Liquid	796 J/K/mol
350.57 K, Liquid	796.5 J/K/mol
352.4 K, Liquid	797.8 J/K/mol
354.23 K, Liquid	799.5 J/K/mol
356.06 K, Liquid	801.2 J/K/mol
357.89 K, Liquid	802.8 J/K/mol
359.72 K, Liquid	804.3 J/K/mol
360 K, Liquid	804.6 J/K/mol
361.55 K, Liquid	806 J/K/mol
363.37 K, Liquid	807.7 J/K/mol
365.2 K, Liquid	809.1 J/K/mol
367.03 K, Liquid	810.8 J/K/mol
368.86 K, Liquid	812.7 J/K/mol
370 K, Liquid	813.4 J/K/mol
